Structures are written as SMILES. Activity calls are given as the source filed them. The calls are words filed in the database; no cut-off is given here.

The results in this text go back to ChEMBL document CHEMBL1955749, “Synthesis and anti-influenza activity of aminoalkyl rupestonates” (Bioorg Med Chem Lett, 2012).

The subject of data set [1] is Influenza A virus. The experiment in a line: Antiinfluenza activity against influenza A virus. In kind it is functional, organism-based.
Data set [2] in a line: Cytotoxicity against MDCK cells. Format: cell-based, Canis lupus familiaris. The conditions noted are these: dog, read-out: TC50 (the source's name).
In data set [3] the test system is Influenza A virus. The experiment in a line: Antiinfluenza activity against influenza A virus H3N2 infected in MDCK cells assessed as inhibition of virus-induced cytopathic effect after 36 hrs. In kind it is functional, organism-based.
The nature of data set [4]: Selectivity index, ratio of TC50 for MDCK cells to IC50 for influenza A virus H3N2. Format: toxicity, cell-based. As to conditions: dog, read-out: Selectivity Index.
The subject of data set [5] is Influenza B virus. The experiment in a line: Antiinfluenza activity against influenza B virus infected in MDCK cells assessed as inhibition of virus-induced cytopathic effect after 36 hrs. In kind it is functional, organism-based.
The subject of data set [6] is Influenza A virus. The experiment in a line: Antiinfluenza activity against influenza A virus H1N1 infected in MDCK cells assessed as inhibition of virus-induced cytopathic effect after 36 hrs. Format: functional, organism-based.
Data set [7] concerns Influenza A virus. The experiment in a line: Antiinfluenza activity against influenza A virus H3N2 infected in MDCK cells assessed as inhibition of virus-induced cytopathic effect at 0.15 to 1.37 ug/ml after 36 hrs. In kind it is functional, organism-based.
The nature of data set [8]: Selectivity index, ratio of TC50 for MDCK cells to IC50 for influenza A virus H1N1. As to conditions: dog, read-out: Selectivity Index. In kind it is toxicity, cell-based.
Data set [9] can be described thus: Selectivity index, ratio of TC50 for MDCK cells to IC50 for influenza B virus. In kind it is toxicity, cell-based. As to conditions: dog, read-out: Selectivity Index.
Data set [10] has as its system Influenza B virus. The experiment in a line: Antiinfluenza activity against influenza B virus. Format: functional, organism-based.
Data set [11] has as its system Influenza A virus. The experiment in a line: Antiinfluenza activity against influenza A virus H1N1. In kind it is functional, organism-based.
The test system of data set [12] is Influenza A virus. The experiment in a line: Antiinfluenza activity against influenza A virus H3N2. Format: functional, organism-based.

Regarding `C=C(C(=O)O)[C@@H]1CC[C@H](C)[C@@H]2CC(=O)C(C)=C2C1c1ccc(C(C)(C)C)cc1` (some centres undefined), the IC50 in data set [1] was 0.5 µM.
Consider `C=C(C(=O)OCCCCCCCCCCBr)[C@@H]1CC[C@H](C)[C@@H]2CC(=O)C(C)=C2C1`, for which, in data set [2], the CC50 was 138 µM. The IC50 is 16.4 µM in [3], over 26.5 µM in data set [5] and 6.7 µM in data set [6]. Moreover, the selectivity ratio in [4] worked out at 8.4; in [8], 20.5. Moreover, the inhibition result in [7] was “Active”.
Take `C=C(C(=O)OCCCCCCCCCCn1cncn1)[C@@H]1CC[C@H](C)[C@@H]2CC(=O)C(C)=C2C1`: the CC50 in data set [2] came out at 27.1 µM. For the same molecule, the half-maximal inhibitory concentration (IC50) in [3] worked out at 0.97 µM; in [5] it was 11.3 µM; in data set [6] it was 0.42 µM. Further, the selectivity ratio amounted to 28.1 in data set [4], 2.4 in data set [9] and 65 in data set [8]. The inhibition entry in data set [7] was “Active”.
Consider `C=C(C(=O)OCCCl)[C@@H]1CC[C@H](C)[C@@H]2CC(=O)C(C)=C2C1`, for which the figures for the 50% inhibitory concentration (IC50) in data set [10], in data set [11] and in data set [12] were 358 µM, 27.8 µM and 17.2 µM, respectively.
